From US20220010019A1, “Targeting intraepithelial lymphocytes for treatment of metabolic syndrome” (The General Hospital Corporation, priority 2018, published 2022)

Test system: Ldlr−/− mice
Experiment: Atherosclerotic lesion quantification in HCD-fed Ldlr−/− mice, Glp1r agonist treatment
Assay type: in vivo
Settings: 8 weeks on HCD, 100 μg per kg per day via osmotic minipumps, vs PBS
Method: Glp1r agonist treatment. Ldlr−/− mice were treated with the Glp1r agonist exendin-4 (Abcam) at a dose of 100 μg per kg per day via osmotic minipumps (Alzet). After 8 weeks on a HCD, mice were euthanized for atherosclerotic lesion quantification.
Adipose tissue. iWAT and pWAT were excised, fixed in 10% formalin solution and paraffin-embedded. Haematoxylin and eosin staining was performed to assess overall tissue morphology. The adipocyte size distribution was determined with the NIH ImageJ program. Aortas. Aortic roots were dissected, embedded in Tissue-Tek OCT compound (Sakura Finetek) and frozen in 2-methylbutane (Fisher Scientific) cooled with dry ice. For comparisons of lesion sizes between the groups, sections with the maximum lesion area were used. To measure lesion volume, sections were collected at the first appearance of the aortic valves until lesions were no longer visible. Oil red O staining (Sigma-Aldrich) was performed to visualize lipid content and the lesion size was measured. To quantify lesion macrophage and smooth muscle cell content, immunohistochemistry was performed with anti-CD68 (BioLegend) and anti-Myh11 (Millipore) antibodies. […] To quantify collagen content, Masson trichrome staining (Sigma-Aldrich) was performed.

exendin-4 was tested, and the “atherosclerosis (plaque size, oil-red O-stained aortas)” value was “attenuated atherosclerosis”.
